In US4994472A, “1-(pyridinylamino)-2-pyrrolidinones as pain relievers” (Hoechst-Roussel Pharmaceuticals Incorporated, priority 1989, dated 1991):

Columns and labels:
[1] = test system: Scopolamine Induced Memory Deficit; assay: Dark Avoidance Assay (reversal of scopolamine induced memory deficit); format: in vivo; settings: mice, retest after 24 hours
Protocol: In this assay, mice are tested for their ability to remember an unpleasant stimulus for a period of 24 hours. A mouse is placed in a chamber that contains a dark compartment; a strong incandescent light drives it to the dark compartment, where an electric shock is administered through metal plates on the floor. The animal is removed from the testing apparatus and tested again, 24 hours later, for the ability to remember the electric shock. If scopolamine, an anticholinergic that is known to cause memory impairment, is administered before an animal's initial exposure to the test chambers, the animal re-enters the dark compartment shortly after being placed in the test chamber 24 hours later. The effect of scopolamine is blocked by an active test compound, resulting in a greater interval before re-entry into the dark compartment. The results for an active compound are expressed as the percent of a group of animals in which the effect of scopolamine is blocked, as manifested by an increased interval between being placed in the test chamber and re-entering the dark compartment. The activity in the assay of some of the compounds of the invention are given below in Table 2.

[2] = test system: phenyl-para-quinone induced writhing; assay: phenyl-para-quinone writhing assay in mice (analgesia); format: in vivo; settings: 20 mg/kg s.c., expressed as % decrease in writhing
From the text: Exptl. […] Presented in Table I is the analgesic effect of one of the compounds of the invention expressed as the % decrease in writhing at a given dose.

Nc1c2c(nc3ccccc13)CCCC2 [Tacrine, reference compound]
% of Animals With Scopolamine Induced Memory Deficit Reversal ([1]; .63 (mg/kg of body wt) s.c.): 13%

CCCN(c1ccncc1)N1CCCC1=O.O=C(O)C(=O)O [1-(Propyl-4-pyridinylamino)-2-pyrrolidinone oxalate]
% of Animals With Scopolamine Induced Memory Deficit Reversal ([1]; .3 mg/kg s.c.): 33%

O=C1CCCN1Nc1ccncc1 [1-(4-pyridinylamino)-2-pyrrolidinone, 1-(4-Pyridinylamino)-2-pyrrolidinone]
% Inhibition of Writhing [2]: -56%
